From patent publication EP1038880B1, “Androstanes and pregnanes for allosteric modulation of GABA receptor” (priority 1994, dated 1995)

Tests used:
[1] = system: metrazol induced convulsions; test: animal or person; assay type: in vivo, mice; details: 60 mg/kg, IP
Protocol: Experiments were also performed to determine the physiological relevance of neuroactive steroid and GABA receptor interactions by assessing the ability of the compounds of and used in the invention to prevent metrazol induced convulsions in mice. Mice were injected with various doses of the test compounds of the invention, 10 minutes prior to the injection of metrazol. The time to onset of myoclomis (presence of forelimb clonic activity) induced by metrazol was determined by observing each mouse for a period of 30 minutes. […] Table 6: Antimetrazol Activity of Neuroactive Steroids in Mice
The anticonvulsant tests are similar to that described above. […] The number of animals with tonic and/or clonic convulsions was recorded. In the maximal electroshock test, 50 mA of current at 60 Hz was delivered through corneal electrodes for 200 msec to induce tonic seizure. The ability of compounds to abolish the tonic component was defined as the endpoint. General CNS depression potential was determined by a rotorod test 10 minutes after the injection of compounds where the number of mice staying on a rotating (6 rpm) rod for 1 minute in one of the three trials was determined. […] Table 7. Anticonvulsant Activity of Exemplified Neuroactive Steroids and those of Selected Clinically Useful Anticonvulsants in Mice

[2] = biological target: GR complex; test: [35S]TBPS binding assay (inhibition of [35S]TBPS binding, cerebral cortex P2 homogenate); set-up: species or system rat; details: for IC50: 2 nM [35S]TBPS, rat cerebral cortex P2 homogenate; for IMAX: maximum inhibition of [35S]TBPS binding
Protocol: We performed several experiments to determine the nature of the modulation of [^35S]TBPS as affected by the compounds of the invention.
These procedures were performed as follows:
Brains from male Sprague-Dawley rats were removed immediately following sacrifice and the cerebral cortices dissected over ice. […] Briefly, the cortices were gently homogenized in 0.32 M sucrose followed by centrifugation at 1000 x g for 10 minutes. The supernatant was collected and centrifuged at 9000 x g for 20 minutes. The resultant P2 pellet was suspended as a 10% (original wet weight/volume) suspension in 50 mM Na/K phosphate buffer (pH 7.4) 200 mM NaCl to form the homogenate.
One hundred microliter […] aliquots of the P2 homogenate (0.5 milligrams (mg) protein) were incubated with 2 nanomolar (nM) [^35S]TBPS (70-110 curies/millimole; New England Nuclear, Boston, MA) in the presence or absence of the naturally occurring steroids or their synthetic derivatives to be tested. The tested compounds were dissolved in dimethylsulfoxide (Baker Chem. Co., Phillipsbury, NJ) and added to the incubation mixture in 5 µL aliquots. The incubation mixture was brought to a final volume of 1 mL with buffer. Non-specific binding was defined as binding in the presence of […] TBPS. The effect and specificity of GABA (Sigma Chem. Co., St. Louis, MO) was evaluated by performing all assays in the presence of GABA plus (+)bicuculline (Sigma Chem. Co.). maintained at 25°C for 90 minutes (steady state conditions) were terminated by rapid filtration through glass fiber filters (No. 32, Schleicher and Schuell, Keene, NH). Filter-bound radioactivity was quantitated by liquid scintillation spectrophotometry.
Various compounds were screened to determine their potential as modulators of [^35S]TBPS binding in vitro. These assays were performed in accordance with the above discussed procedures. […] It is an indication of a compound's in vitro potency. Maximum inhibition is an indication of a compound's in vitro efficacy.

[3] = listed as 3α-Hydroxy-3β-(3'-hydroxyphenyl)-ethynyl-5β-pregnan-20-one

SMILES | IC50 [2] | IMAX [2] | further results
CC(=O)[C@H]1CC[C@H]2[C@@H]3CC[C@H]4C[C@H](OC(=O)c5ccccc5)CC[C@]4(C)[C@H]3CC[C@]12C [Phenyl] | – | – | % Protection ([1]; 1hr): 33%
CC(=O)OC1CCC2(C)C(CCC3C2CCC2(C)C(C(C)=O)CCC32)C1 (stereo not drawn) [Methyl] | – | – | % Protection ([1]; 1hr): 25%
CC(=O)C1CCC2C3CCC4CC(OC(=O)c5ccc(Cl)cc5)CCC4(C)C3CCC12C (stereo not drawn) [4-Chlorophenyl] | – | – | % Protection ([1]; 1hr): 50%
CC(=O)C1CCC2C3CCC4CC(OC(=O)c5cccnc5)CCC4(C)C3CCC12C (stereo not drawn) [Example 3-Pyridyl] | – | – | % Protection ([1]; 20hour): 50(20hour) %
COc1ccc(C(=O)OC2CCC3(C)C(CCC4C3CCC3(C)C(C(C)=O)CCC43)C2)cc1 (stereo not drawn) [4-Methoxyphenyl] | – | – | % Protection ([1]; 1hr): 17%
CCCC(CCC)C(=O)OC1CCC2(C)C(CCC3C2CCC2(C)C(C(C)=O)CCC32)C1 (stereo not drawn) [Example 4-Heptyl] | – | – | % Protection ([1]; 4 hour): 16 (4 hour) %
CC(=O)[C@H]1CC[C@H]2[C@@H]3CC[C@@H]4C[C@@](O)(C#Cc5ccc(C(F)(F)F)cc5)CC[C@]4(C)[C@H]3CC[C@]12C [3α-hydroxy-3β-(4'-trifluoromethylphenylethynyl)-5β-pregnan-20-one] | 52 nM | 87% | –
CC(=O)[C@H]1CC[C@H]2[C@@H]3CC[C@@H]4C[C@@](O)(C#Cc5ccc(F)cc5F)CC[C@]4(C)[C@H]3CC[C@]12C [3β-(2', 4'-difluorophenylethynyl)-3α-hydroxy-5β-pregnan-20-one] | 109 nM | 102% | –
CCC(=O)OC1CCC2(C)C(CCC3C2CCC2(C)C(C(C)=O)CCC32)C1 (stereo not drawn) [Ethyl] | – | – | % Protection ([1]; 1hr): 75%
C[C@]12CC[C@H]3[C@@H](CC[C@@H]4C[C@@](O)(C#CCCO)CC[C@@H]43)[C@@H]1CC[C@@H]2C(=O)Cn1ccnc1 [3α-Hydroxy-3β-(4-hydroxybutyn-1-yl)-21-(1-imidazolyl)-5β-19-norpregnan-20-one] | 98 nM | 98% | –
CCCC(=O)OC1CCC2(C)C(CCC3C2CCC2(C)C(C(C)=O)CCC32)C1 (stereo not drawn) [Propyl] | – | – | % Protection ([1]; 1hr): 75%
CC(=O)[C@H]1CC[C@H]2[C@@H]3CC[C@@H]4C[C@@](O)(C#Cc5cccc(O)c5)CC[C@]4(C)[C@H]3CC[C@]12C [3β-(3'-hydroxyphenylethynyl)-3α-hydroxy-5β-pregnan-20-one] | 407 nM | 99% | IC50 [2, 3]: 619 nM; IMAX [2, 3]: 98%
C[C@]12CC[C@@H]3c4ccc(O)cc4CC[C@H]3[C@@H]1CC[C@@H]2O [17β-Estradiol, reference compound] | – | 0% | –
CC(=O)Oc1ccc(C#C[C@@]2(O)CC[C@@]3(C)[C@H](CC[C@@H]4[C@@H]3CC[C@]3(C)[C@@H](C(C)=O)CC[C@@H]43)C2)cc1 [3β-(4'-Acetoxyphenylethynyl)-3α-hydroxy-5β-pregnan-20-one] | 1430 nM | 100% | –
Cc1nccn1CC(=O)[C@H]1CC[C@H]2[C@@H]3CC[C@@H]4C[C@H](O)CC[C@]4(C)[C@H]3CC[C@]12C [3α-hydroxy-21-[1H-(2-methyl)imidazol-1-yl)-5β-pregnan-20-one] | 222 nM | 95% | –
CC(=O)[C@H]1CC[C@H]2[C@@H]3CC[C@@H]4C[C@@](O)(C#CCc5ccccc5)CC[C@]4(C)[C@H]3CC[C@]12C [3α-Hydroxy-3β-(3'-phenyl-1'-propynyl)-5β-pregnan-20-one] | 103 nM | 95% | –
CC(=O)C1CCC2C3CCC4CC(O)(C#CCCO)CCC4(C)C3CCC12C (stereo not drawn) [3β-(4'-hydroxybutynyl)-3α-hydroxy-5α-pregnan-20-one] | – | 95% | –

SMILES | IC50 [2] | IMAX [2] | further results
CC(=O)[C@H]1CC[C@H]2[C@@H]3CC[C@@H]4C[C@@](O)(C#Cc5ccc(Cl)cc5)CC[C@]4(C)[C@H]3CC[C@]12C [3β-(4'-chlorophenylethynyl)-3α-hydroxy-5β-pregnan-20-one] | 58 nM | 89% | –
C[C@]12CC[C@@H](O)C[C@H]1CC[C@@H]1[C@@H]2CC[C@]2(C)[C@@H](C(=O)Cn3ncnn3)CC[C@@H]12 [3α-Hydroxy-21-(2'H-1,2,3,4-tetrazol-2'-yl)-5β-pregnan-20-one] | 46 nM | 78% | –
CC(=O)OCC#C[C@@]1(O)CC[C@@]2(C)[C@H](CC[C@@H]3[C@@H]2CC[C@]2(C)[C@@H](C(C)=O)CC[C@@H]32)C1 [3β-(3'-acetoxy-1'-propynyl)-3α-hydroxy-5β-pregnan-20-one] | – | 104% | –
CC(=O)[C@H]1CC[C@H]2[C@@H]3CC[C@@H]4C[C@@](O)(CCc5ccccc5O)CC[C@]4(C)[C@H]3CC[C@]12C [3β-(2'-Hydroxyphenyl)ethyl-3α-hydroxy-5β-pregnan-20-one] | 101 nM | 83% | –
CC(=O)c1ccc(C#CC2(O)CCC3C(CCC4C3CCC3(C)C(C(C)=O)CCC43)C2)cc1 (stereo not drawn) [3β-(4'-Acetylphenyl)ethynyl-3α-hydroxy-5β-19-norpregnan-20-o] [3β-(4'-Acetylphenylethynyl)-3α-hydroxy-19-nor-5β-pregnan-20-one] | 6 nM | 90% | –
C[C@]12CC[C@](O)(C#CCCO)C[C@H]1CC[C@@H]1[C@@H]2CC[C@]2(C)[C@@H](C(=O)Cn3cnnn3)CC[C@@H]12 [3α-hydroxy-3β-(4-hydroxybutyn-1-yl)-21-(tetrazol-1-yl)-5β-pregnan-20-one] | 93 nM | 101% | –
CC(C)CCC[C@@H](C)[C@H]1CC[C@H]2[C@@H]3CC=C4C[C@@H](O)CC[C@]4(C)[C@H]3CC[C@]12C [Cholesterol, reference compound] | – | 0% | –
CC1(O)CCC2(C)C(CCC3C2CCC2(C)C(C(=O)Cn4nccn4)CCC32)C1 (stereo not drawn) [3α-hydroxy-3β-methyl-21(2'H-1',2',3'-triazol-2'-yl)-5α-pregnan-20-one] | 85 nM | 99% | –
C[C@]12CC[C@@H](O)C[C@@H]1CC[C@@H]1[C@@H]2CC[C@]2(C)[C@@H](C(=O)Cn3cccn3)CC[C@@H]12 [3α-hydroxy-21-(1'-pyrazolyl)-5α-pregnan-20-one] | 100 nM | 98% | –
C[C@]12CC[C@@H](O)C[C@H]1CC[C@@H]1[C@@H]2CC[C@]2(C)[C@@H](C(=O)Cn3cnc([N+](=O)[O-])c3)CC[C@@H]12 [3a-hydroxy-21-[1H-(4-nitro)imidazol-1-yl)-5β-pregnan-20-one] | 267 nM | 71% | –
CC12CCC(O)CC1CCC1C2CCC2(C)C(C(=O)Cn3ccnc3C=O)CCC12 (stereo not drawn) [3α-hydroxy-21-[1H-(2'-formyl)imidazol-1-yl]-5-pregnan-20-one] | 213 nM | 81% | –
CC(=O)[C@H]1CC[C@H]2[C@@H]3CC[C@@H]4C[C@@](O)(CCc5ccccc5)CC[C@]4(C)[C@H]3CC[C@]12C [3α-Hydroxy-3β-(2'-phenylethyl)-5β-pregnan-20-one] | 135 nM | 98% | –
COc1ccc(C#CC2(O)CCC3(C)C(CCC4C3CCC3(C)C(C(C)=O)CCC43)C2)cc1 (stereo not drawn) [3β-(4'-methoxyphenylethynyl)-3α-hydroxy-5β-pregnan-20-one] | 47 nM | 89% | –
COc1ccc(C#CC2(O)CCC3(C)C(CCC4C3CCC3(C)C(C(C)=O)CCC43)C2)cc1OC (stereo not drawn) [3β-(3',4'-Dimethoxyphenylethynyl)-3α-hydroxy-5β-pregnan-20-one] | – | 106% | –
CC(=O)C#C[C@@]1(O)CC[C@@]2(C)[C@H](CC[C@@H]3[C@@H]2CC[C@]2(C)[C@@H](C(C)=O)CC[C@@H]32)C1 [3α-Hydroxy-3β-(3'-oxobutynyl)-5β-pregnan-20-one] | 2690 nM | 107% | –
CC(=O)[C@H]1CC[C@H]2[C@@H]3CC[C@@H]4C[C@@](O)(C#Cc5c(F)c(F)c(F)c(F)c5F)CC[C@]4(C)[C@H]3CC[C@]12C [3β-(pentafluorophenylethynyl)-3α-hydroxy-5β-pregnan-20-one] | 79 nM | 69% | –
C[C@]12CC[C@@H](O)C[C@H]1CC[C@@H]1[C@@H]2CC[C@]2(C)[C@@H](C(=O)Cn3cnc4ncncc43)CC[C@@H]12 [3α-hydroxy-21-(7'H-purin-7'-yl)-5β-pregnan-20-one] | 430 nM | 71% | –
